Reference: patent publication US7384934B2, “Piperazine substituted aryl benzodiazepines” (Eli Lilly and Company, priority 2002, dated 2008)
Counter-ions that a name gives are not always drawn.

How the values were obtained:
[1] = molecular target: T1, Dopamine D2 receptor (Homo sapiens, UniProt P14416); experiment: Dopamine D2 receptor binding assay ([125I]iodospiperone); settings: relative Ki scale of Table 5; read-out: Relative D2 Receptor Binding Affinity Ki
T1 construct: purchased Receptor Biology (now owned by NEN) RBHD2CM
T1 sequence (P14416 1-414 isoform P14416-2): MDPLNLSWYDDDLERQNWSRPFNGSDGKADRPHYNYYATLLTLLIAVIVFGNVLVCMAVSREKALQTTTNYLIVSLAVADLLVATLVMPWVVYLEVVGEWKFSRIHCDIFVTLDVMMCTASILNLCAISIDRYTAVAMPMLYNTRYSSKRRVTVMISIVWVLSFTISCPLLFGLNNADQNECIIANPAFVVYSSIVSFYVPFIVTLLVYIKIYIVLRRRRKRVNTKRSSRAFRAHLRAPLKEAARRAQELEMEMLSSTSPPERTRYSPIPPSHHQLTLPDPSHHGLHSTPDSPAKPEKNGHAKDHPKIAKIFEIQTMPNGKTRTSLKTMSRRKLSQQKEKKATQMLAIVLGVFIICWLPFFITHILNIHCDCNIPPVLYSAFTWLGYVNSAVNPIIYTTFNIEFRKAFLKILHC
Procedure: The assay buffers used are 50 mM Tris-HCl pH 7.4, 120 mM NaCl, 5 mM KCl, 5 mM MgCl2, 1 mM EDTA for the Dopamine D2s receptor binding assay. […] The membranes used are from Receptor Biology (now owned by NEN), Cat # RBHD2CM for the D2 receptor.
Compounds are obtained as 10 mM stocks in 100% DMSO. They are diluted to 1 mM in 100% DMSO by adding 180 μL DMSO to 20 μL of stock in 96 well plates using a multidrop. […] This is done using a TECAN robot.
The radioligand is diluted in assay buffer to provide 0.1 nM for the D2 assay. Each vial of membranes is diluted up to 92 mL in assay buffer. The final assay volume is 250 μL consisting of 210 μl of diluted membranes, 20 μL of compound or 10% DMSO for total binding, and 20 μL of diluted radioligand. The compounds are transferred from drug dilution plates into coming 96 well assay plates using a 96 well Multimek pipettor. Radioligand and membranes are added to assay plates using multidrop pipettors. Non-specific binding is determined in wells containing a final concentration of 5 μM haloperidol. The final drug concentration range in half logs is from 10 μM down to 0.1 nM.
After addition of drug, membrane, and ligand, the plates are incubated for 2 hours at room temperature. During this time 96 well Millipore filter plates (MAFBNOB50) are soaked for a least 30 minutes with 200 μL per well of 0.5% polyethyleneimine.
The 0.5% PEI is removed from filterplate wells using a TiterTek MAP aspirator and 200 μL of the incubation mixture is transferred from the incubation plate to the filterplate after mixing. This transfer is done using the 96 tip Mutimek pipettor. After transfer to the filterplate filterplates are extracted and ished twice with 220 μL per well of cold buffer on the MAP aspirator. The peel away bottoms are removed from the filterplates and 60 μL per well of microscint 20 scintillation fluid is added per well using a multidrop. […]

Compound	melting point	Ki [1]
CCc1cc2c(s1)Nc1cc(F)ccc1N=C2N1CCN(C)[C@@H](CCOC)C1 (as salt: hydrochloride) [Example 280, (S)-6-Fluoro-10-[3-(2-methoxy-ethyl)-4-methyl-piperazin-1-yl]-2-ethyl-4H-3-thia-4,9-diaza-benzo[f]azulene dihydrochloride]	186 to 188 °C	–
COCC[C@H]1CN(C2=Nc3ccccc3Nc3ccc(C(C)C)cc32)CCN1 [Example 200, (S)-2-Isopropyl-11-[3-(2-methoxy-ethyl)-piperazin-1-yl]-5H-dibenzo[b,e][1,4]diazepine]	158 to 160 °C	–
COCC[C@H]1CN(C2=Nc3cc(Cl)ccc3Nc3sc(C)cc32)CCN1 [Example 258, (S)-7-Chloro-10-[3-(2-methoxy-ethyl)-piperazin-1-yl]-2-methyl-4H-3-thia-4,9-diazabenzo[f]azulene]	179 to 183 °C (dec.)	–
COCC[C@H]1CN(C2=Nc3ccccc3Nc3ccc(C(F)(F)F)cc32)CCN1 [Example 202, (S)-2-Trifluoromethyl-11-[3-(2-methoxy-ethyl)-piperazin-1-yl]-5H-dibenzo[b,e][1,4]diazepine]	71 to 82 °C	–
COCC[C@H]1CN(C2=Nc3ccccc3Nc3sc(C(C)C)nc32)CCN1C1CC1 [Example 339, (S)-10-[4-Cyclopropyl-3-(2-methoxyethyl)piperazin-1-yl]-2-isopropyl-4H-3-thia-1,4,9-triazabenzo[f]azulene dihydrochloride]	–	10 to 100 nM
COCC[C@H]1CN(C2=Nc3ccccc3Nc3sc(C4CCCC4)nc32)CCN1C [Example 331, (S)-10-[3-(2-Methoxyethyl)-4-methylpiperazin-1-yl]-2-cyclopentyl 4H-3-thia-1,4,9-triazabenzo[f]azulene dihydrochloride]	–	10 to 100 nM
CCOCC[C@H]1CN(C2=Nc3ccccc3Nc3sc(C(C)C)nc32)CCN1 [Example 309, (S)-10-[3-(2-Ethoxyethyl)-piperazin-1-yl]-2-isopropyl-4H-3-thia-1,4,9-triazabenzo[f]azulene]	–	10 to 100 nM
COCC[C@H]1CN(C2=Nc3ccccc3Nc3sc(C(F)F)nc32)CCN1 [Example 316, (S)-10-[3-(2-Methoxy-ethyl)-piperazin-1-yl]-2-difluoromethyl-4H-3-thia-1,49-triaza-benzo[f]azulene]	–	< 10 nM
CCN1CCN(C2=Nc3ccccc3Nc3sc(C(F)(F)F)nc32)C[C@@H]1CCOC [Example 344, (S)-10-[4-Ethyl-3-(2-methoxy-ethyl)-piperazin-1-yl]-2-trifluoromethyl-4H-3-thia-1,4,9-triaza-benzo[f]azulene]	–	< 10 nM
COCC[C@H]1CN(C2=Nc3ccccc3Nc3sc(C(F)(F)F)nc32)CCN1CCOCCO [Example 357]	–	10 to 100 nM
Cc1cc2c(s1)Nc1ccccc1N=C2N1CCN[C@@H](CC(C)(C)O)C1 [Example 369, (S)-2-Methyl-1-[4-(2-methyl-4H-3-thia-4,9-diaza-benzo[f]azulen-10-yl)piperazin-2-yl]-propan-2-ol]	–	100 to 1000 nM
CCc1nc2c(s1)Nc1ccccc1N=C2N1CCN[C@@H](CCOC)C1 [Example 303, (S)-10-[3-(2-Methoxy-ethyl)-piperazin-1-yl]-2-ethyl-4H-3-thia-1,4,9-triaza-benzo[f]azulene]	–	< 10 nM
CCOCC[C@H]1CN(C2=Nc3ccccc3Nc3sc(C)nc32)CCN1C [Example 321, (S)-10-[3-(2-Ethoxyethyl)-4-methyl-piperazin-1-yl]-2-methyl-4H-3-thia-1,4,9-triazabenzo[f]azulene dihydrochloride]	–	100 to 1000 nM
CCOC(=O)c1nc2c(s1)Nc1ccccc1N=C2N1CCN[C@@H](CCOC)C1 [Example 313, (S)-10-[3-(2-Methoxy-ethyl)-piperazin-1-yl]-4H-3-thia-1,4,9-triaza-benzo[f]azulene-2-carboxylic acid ethyl ester]	–	100 to 1000 nM
CCCN1CCN(C2=Nc3ccccc3Nc3sc(C(C)C)nc32)C[C@@H]1CCOC [Example 341, (S)-10-[3-(2-Methoxyethyl)-4-propylpiperazin-1-yl]-2-isopropyl-4H-3-thia-1,4,9-triazabenzo[f]azulene dihydrochloride]	–	10 to 100 nM
CCCc1nc2c(s1)Nc1ccccc1N=C2N1CCN[C@@H](CCOC)C1 [Example 304, (S)-10-[3-(2-Methoxy-ethyl)-piperazin-1-yl]-2-propyl-4H-3-thia-1,4,9-triaza-benzo[f]azulene]	–	< 10 nM
CCCCc1nc2c(s1)Nc1ccccc1N=C2N1CCN(C)[C@@H](CCOC)C1 [Example 324, (S)-10-[3-(2-Methoxy-ethyl)-4-methyl-piperazin-1-yl]-2-butyl 4H-3-thia-1,4,9-triaza-benzo[f]azulene]	–	10 to 100 nM
COCC[C@H]1CN(C2=Nc3ccccc3Nc3sc(C(C)C)nc32)CCN1CCOC [Example 343, (S)-10-[3,4-Bis(2-methoxyethyl)piperazin-11-yl]-2-isopropyl-4H-3-thia-1,4,9-triazabenzo[f]azulene dihydrochloride]	–	100 to 1000 nM
CC(C)c1nc2c(s1)Nc1ccccc1N=C2N1CCN[C@@H](CC(C)(C)O)C1 [Example 367, (S)-1-[4-(2-Isopropyl-4H-3-thia-1,4,9-triazabenzo[f]azulene-10-yl)-piperazin-2-yl]-2-methylpropan-2-ol dihydrochloride]	–	< 10 nM
COCC[C@H]1CN(C2=Nc3ccccc3Nc3sc(CCC(F)(F)F)nc32)CCN1C [Example 338, (S)-10-[3-(2-Methoxy-ethyl)-4-methyl-piperazin-1-yl]-2-(3,3,3-trifluoro-propyl)-4H-3-thia-1,4,9-triaza-benzo[f]azulene dihydrochloride]	–	10 to 100 nM
CC(C)c1nc2c(s1)Nc1ccccc1N=C2N1CCN(C)[C@@H](CC(C)(C)O)C1 [Example 368, (S)-1-[4-(2-Isopropyl-4H-3-thia-1,4,9-triazabenzo[f]azulene-10-yl)-1-methylpiperazin-2-yl]-2-methyl-propan-2-ol dihydrochloride]	–	< 10 nM

Next, values leading:

melting point	Ki [1]	Compound
180 to 182 °C	–	CCOCC[C@H]1CN(C2=Nc3ccc(F)cc3Nc3sc(C)cc32)CCN1C.Cl
74 to 88 °C	–	Cc1cc2c(s1)Nc1ccccc1N=C2N1CCN(C)[C@@H](COc2ccccc2)C1 [Example 265, (R)-10-(4-Methyl-3-phenoxymethyl-piperazin-1-yl)-2-methyl-4H-3-thia-4,9-diaza-benzo[f]azulene]
200 to 202 °C	–	COCC[C@H]1CN(C2=Nc3cc(Cl)ccc3Nc3sc(C)cc32)CCN1C (as salt: hydrochloride) [Example 292, (S)-7-Chloro-10-[3-(2-methoxy-ethyl)-4-methyl-piperazin-1-yl]-2-methyl-4H-3-thia-4,9-diaza-benzo[f]azulene dihydrochloride]
55 to 65 °C	–	Cc1cc2c(s1)Nc1ccccc1N=C2N1CCN(C)[C@@H](COCc2ccccc2)C1 [Example 270, (R)-10-(3-Benzyloxymethyl-4-methyl-piperazin-1-yl)-2-methyl-4H-3-thia-4,9-diaza-benzo[f]azulene]
190 to 192 °C	–	COCC[C@H]1CN(C2=Nc3ccc(F)cc3Nc3sc(C)cc32)CCN1C (as salt: hydrochloride) [Example 279a, (S)-6-Fluoro 10-[3-(2-methoxy-ethyl)-4-methyl-piperazin-1-yl]-2-methyl-4H-3-thia-4,9-diaza-benzo[f]azulene dihydrochloride]
194 °C	–	CSCC[C@H]1CN(C2=Nc3ccc(F)cc3Nc3sc(C)cc32)CCN1C.Cl.Cl
–	10 to 100 nM	Cc1nc2c(s1)Nc1ccccc1N=C2N1CCN(C)[C@@H](CCO)C1 [Example 319, (S)-2-[1-Methyl-4-(2-methyl-4H-3-thia-1,4,9-triazabenzo[f]azulene-10-yl)piperazin-2-yl]ethanol dihydrochloride]
–	10 to 100 nM	Cc1cc2c(s1)Nc1ccccc1N=C2N1CCN(C)[C@@H](CCOc2ccccc2)C1 [Example 269, (S)-10-[4-Methyl-3-(2-phenoxyethyl)piperazin-1-yl]-2-methyl-4H-3-thia-4,9-diazabenzo[f]azulene dihydrochloride]
–	10 to 100 nM	COCC[C@H]1CN(C2=Nc3ccccc3Nc3sc(C)nc32)CCN1C [Example 320, (S)-10-[3-(2-Methoxyethyl)-4-methylpiperazin-1-yl]-2-methyl-4H-3-thia-1,4,9-triazabenzo[f]azulene dihydrochloride]
–	10 to 100 nM	COCC[C@H]1CN(C2=Nc3ccccc3Nc3sc(C)cc32)CCN1 [Example 242, (S)-10-[3-(2-Methoxyethyl)-piperazin-1-yl]-2-methyl-4H-3-thia-4,9-diazabenzo[f]azulene hydrochloride]
–	10 to 100 nM	COCC[C@H]1CN(C2=Nc3ccccc3Nc3sc(C)cc32)CCN1C [Example 267, (s)-10-[3-(2-Methoxyethyl)-4-methylpiperazin-1-yl]-2-methyl-4H-3-thia-4,9-diazabenzo[f]azulene dihydrochloride]
